Assay results taken from patent EP4707280A1, “1,4-CINEOLE DERIVATIVE AND INTERMEDIATE THEREOF, HERBICIDE CONTAINING SAID DERIVATIVE AS ACTIVE INGREDIENT, METHOD FOR USING HERBICIDE, AND METHOD FOR PREPARING AGROCHEMICAL COMPOSITION” (HOKKO CHEMICAL INDUSTRY CO., LTD., priority 2023, dated 2024).

Tests used:
Assay type in all cases: in vivo
[1] = tested on: Digitaria ciliaris; experiment: Test Example 8: herbicidal effect test by stem and leaf treatment in upland field (low dose); settings: Digitaria ciliaris; 7.5 g per 10 ares; sprayed seven days after sowing, upland soil; 14 days after application; read-out: weed inhibition rate
[2] = tested on: Echinochloa crus-galli; experiment: as above; settings: Echinochloa crus-galli; 7.5 g per 10 ares; sprayed seven days after sowing, upland soil; 14 days after application; read-out: weed inhibition rate
[3] = tested on: Digitaria ciliaris; experiment: Test Example 3: herbicidal effect test by soil application in upland field; settings: Digitaria ciliaris, 120 g per 10 ares, sprayed one day after sowing, 14 days after application, read-out: weed inhibition rate
Procedure, shortened: (§1)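 Pre-emergence test: seeds mixed into top 1 cm of alluvial loam upland soil in pots; emulsifiable concentrate diluted in water sprayed on soil one day after sowing at 100 L/10 a, 120 g a.i./10 a. Weed inhibition rate (%) scored at 14 days, in duplicate.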

[4] = tested on: Echinochloa crus-galli; experiment: as above; settings: Echinochloa crus-galli, 120 g per 10 ares, sprayed one day after sowing, 14 days after application, read-out: weed inhibition rate
Procedure, shortened: as §1

[5] = tested on: Monochoria vaginalis; experiment: Test Example 6: herbicidal effect test by application during growth period of paddy rice (low dose); settings: Pontederia vaginalis; 7.5 g per 10 ares; applied seven days after sowing, flooded pots; 14 days after application; read-out: weed inhibition rate
Procedure, shortened: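 Paddy-soil pots, flooded ~3 cm after sowing weed seeds at 0-1 cm depth, greenhouse-grown. Seven days after sowing, diluted emulsifiable concentrate applied by dropper at 7.5 g active ingredient per 10 ares. Weed inhibition rate (%) scored 14 days after application, in duplicate.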

[6] = tested on: Scirpus juncoides; experiment: Test Example 2: herbicidal effect test by application during growth period of paddy rice; settings: Schoenoplectiella juncoides; 120 g per 10 ares; applied seven days after sowing, flooded pots; 14 days after application; read-out: weed inhibition rate
Procedure, shortened: (§2)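 Paddy soil in flooded pots (water depth about 3 cm) was sown with weed seeds and kept in a glass greenhouse. Seven days after sowing, a diluted emulsifiable concentrate was applied by dropper at 120 g active ingredient per 10 ares. Weed inhibition was evaluated 14 days after application, in duplicate.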

[7] = tested on: Echinochloa crus-galli var. formosensis; experiment: as above; settings: Echinochloa crus-galli; 120 g per 10 ares; applied seven days after sowing, flooded pots; 14 days after application; read-out: weed inhibition rate
Procedure, shortened: as §2

[8] = tested on: Monochoria vaginalis; experiment: as above; settings: Pontederia vaginalis; 120 g per 10 ares; applied seven days after sowing, flooded pots; 14 days after application; read-out: weed inhibition rate
Procedure, shortened: as §2

[9] = tested on: Monochoria vaginalis; experiment: Test Example 1: herbicidal effect test by soil application in paddy rice; settings: 120 g active ingredient per 10 ares, applied immediately after sowing, flooded pots, 14 days after application; for pest or weed control at 1200 g/ha: Pontederia vaginalis, soil, 336 h, read-out: weed inhibition rate
Procedure, shortened: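 Pre-emergence test in puddled, flooded paddy soil (about 3 cm water), 30 seeds per weed sown at 0–1 cm depth in a glass greenhouse. Emulsifiable concentrate diluted in water and dropped onto the pots straight after sowing at 120 g a.i. per 10 ares. Weed inhibition (%) scored at 14 days, in duplicate.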

[10] = tested on: Amaranthus viridis; experiment: Test Example 3: herbicidal effect test by soil application in upland field; settings: Amaranthus viridis, 120 g per 10 ares, sprayed one day after sowing, 14 days after application, read-out: weed inhibition rate
Procedure, shortened: as §1

Cc1ccccc1CO[C@@H]1C[C@]2(C(C)C)O[C@@]1(C)C/C2=N\O [2-191, (1R,4S,5R,E)-1-isopropyl-4-methyl-5-((2-methylbenzyl)oxy)-7-oxabicyclo[2.2.1]heptan-2-one oxime]
≥ 80%: inhibition at 75 g/ha [1] | inhibition at 75 g/ha [2] | inhibition at 1200 g/ha [3] | inhibition at 1200 g/ha [4] | inhibition at 75 g/ha [5] | inhibition at 1200 g/ha [6] | inhibition at 1200 g/ha [7] | inhibition at 1200 g/ha [8] | pest or weed control at 1200 g/ha [9]

CC(C)[C@]12C[C@@H](OCc3c(F)cccc3Cl)[C@](C)(CC1=O)O2 [2-28, (1R,4S,5R)-5-((2-chloro-6-fluorobenzyl)oxy)-1-isopropyl-4-methyl-7-oxabicyclo[2.2.1]heptan-2-one]
≥ 80%: inhibition at 75 g/ha [1] | inhibition at 75 g/ha [2] | inhibition at 1200 g/ha [3] | inhibition at 1200 g/ha [4] | inhibition at 75 g/ha [5] | inhibition at 1200 g/ha [6] | inhibition at 1200 g/ha [7] | inhibition at 1200 g/ha [8] | pest or weed control at 1200 g/ha [9]

CC(C)[C@]12C[C@@H](OCc3c(F)cccc3Br)[C@](C)(C[C@@H]1Br)O2 [1-1600, (1S,2R,4R,5S)-5-bromo-2-[(2-bromo-6-fluorophenyl)methoxy]-1-methyl-4-isopropyl-7-oxabicyclo[2.2.1]heptane]
≥ 80%: inhibition at 75 g/ha [1] | inhibition at 75 g/ha [2] | inhibition at 1200 g/ha [3] | inhibition at 1200 g/ha [4] | inhibition at 75 g/ha [5] | inhibition at 1200 g/ha [6] | inhibition at 1200 g/ha [7] | inhibition at 1200 g/ha [8] | pest or weed control at 1200 g/ha [9]

CC(C)[C@]12C[C@@H](OCc3ccccc3F)[C@](C)(CC1C)O2 (stereo partly drawn) [1-92, (1S,2R,4R)-2-((2-fluorobenzyl)oxy)-4-isopropyl-1,5-dimethyl-7-oxabicyclo[2.2.1]heptane]
≥ 80%: inhibition at 75 g/ha [1] | inhibition at 75 g/ha [2] | inhibition at 1200 g/ha [3] | inhibition at 1200 g/ha [4] | inhibition at 75 g/ha [5] | inhibition at 1200 g/ha [6] | inhibition at 1200 g/ha [7] | inhibition at 1200 g/ha [8] | pest or weed control at 1200 g/ha [9]

CCOC(C)O[C@H]1C[C@]2(C)O[C@@]1(C(C)C)C[C@H]2OCc1c(F)cccc1F (stereo partly drawn) [1-223, (1S,2R,4R,5S)-2-((2,6-difluorobenzyl)oxy)-5-(1-ethoxyethoxy)-4-isopropyl-1-methyl-7-oxabicyclo[2.2.1]heptane]
≥ 80%: inhibition at 75 g/ha [2] | inhibition at 1200 g/ha [3] | inhibition at 1200 g/ha [10] | inhibition at 1200 g/ha [4] | inhibition at 1200 g/ha [6] | inhibition at 1200 g/ha [7] | pest or weed control at 1200 g/ha [9]

CC(C)[C@]12C[C@@H](OCc3c(F)cccc3Cl)[C@](C)(C[C@@H]1Br)O2 [1-713, (1S,2R,4R,5S)-5-bromo-2-[(2-chloro-6-fluorophenyl)methoxy]-1-methyl-4-isopropyl-7-oxabicyclo[2.2.1]heptane]
≥ 80%: inhibition at 75 g/ha [1] | inhibition at 75 g/ha [2] | inhibition at 1200 g/ha [3] | inhibition at 1200 g/ha [4] | inhibition at 75 g/ha [5] | inhibition at 1200 g/ha [6] | inhibition at 1200 g/ha [7] | inhibition at 1200 g/ha [8] | pest or weed control at 1200 g/ha [9]

CC(C)[C@]12C[C@@H](OCc3ccccc3Br)[C@](C)(CC1=O)O2 [2-13, (1R,4S,5R)-5-((2-bromobenzyl)oxy)-1-isopropyl-4-methyl-7-oxabicyclo[2.2.1]heptan-2-one]
≥ 80%: inhibition at 75 g/ha [1] | inhibition at 75 g/ha [2] | inhibition at 1200 g/ha [3] | inhibition at 1200 g/ha [4] | inhibition at 75 g/ha [5] | inhibition at 1200 g/ha [6] | inhibition at 1200 g/ha [7] | inhibition at 1200 g/ha [8] | pest or weed control at 1200 g/ha [9]

CC(C)[C@]12C[C@@H](OCc3ccccc3C#N)[C@](C)(C[C@@H]1Br)O2 [1-703, 2-[[(1S,2R,4R,5S)-5-bromo-1-methyl-4-isopropyl-7-oxabicyclo[2.2.1]heptan-2-yl]oxymethyl]benzonitrile]
≥ 80%: inhibition at 75 g/ha [1] | inhibition at 1200 g/ha [3] | inhibition at 1200 g/ha [10] | inhibition at 1200 g/ha [4] | inhibition at 1200 g/ha [6] | inhibition at 1200 g/ha [7] | inhibition at 1200 g/ha [8] | pest or weed control at 1200 g/ha [9]

CC(C)[C@]12C[C@@H](OCc3ccccc3Br)[C@](C)(C[C@@H]1Br)O2 [1-694, (1S,2R,4R,5S)-5-bromo-2-[(2-bromophenyl)methoxy]-1-methyl-4-isopropyl-7-oxabicyclo[2.2.1]heptane]
≥ 80%: inhibition at 75 g/ha [2] | inhibition at 1200 g/ha [3] | inhibition at 1200 g/ha [10] | inhibition at 1200 g/ha [4] | inhibition at 75 g/ha [5] | inhibition at 1200 g/ha [7] | inhibition at 1200 g/ha [8] | pest or weed control at 1200 g/ha [9]

CCOC(C)O[C@H]1C[C@]2(C)O[C@@]1(C(C)C)C[C@H]2OCc1ccccc1C (stereo partly drawn) [1-208, (1R,2S,4S,5R)-2-(1-ethoxyethoxy)-1-isopropyl-4-methyl-5-((2-methylbenzyl)oxy)-7-oxabicyclo[2.2.1]heptane]
≥ 80%: inhibition at 75 g/ha [2] | inhibition at 1200 g/ha [3] | inhibition at 1200 g/ha [10] | inhibition at 1200 g/ha [4] | inhibition at 1200 g/ha [6] | inhibition at 1200 g/ha [7] | pest or weed control at 1200 g/ha [9]

CC(C)[C@]12C[C@@H](OCc3ccccc3F)[C@](C)(C[C@H]1C)O2 [1-94, (1S,2R,4R,5R)-2-[(2-fluorophenyl)methoxy]-1,5-dimethyl-4-isopropyl-7-oxabicyclo[2.2.1]heptane]
≥ 80%: inhibition at 75 g/ha [1] | inhibition at 75 g/ha [2] | inhibition at 1200 g/ha [3] | inhibition at 1200 g/ha [4] | inhibition at 75 g/ha [5] | inhibition at 1200 g/ha [7] | inhibition at 1200 g/ha [8] | pest or weed control at 1200 g/ha [9]

CC(C)[C@]12C[C@@H](OCc3cccc(F)c3)[C@](C)(C[C@@H]1Br)O2 [1-690, (1S,2R,4R,5S)-5-bromo-2-[(3-fluorophenyl)methoxy]-1-methyl-4-isopropyl-7-oxabicyclo[2.2.1]heptane]
≥ 80%: inhibition at 75 g/ha [1] | inhibition at 75 g/ha [2] | inhibition at 1200 g/ha [3] | inhibition at 1200 g/ha [4] | inhibition at 75 g/ha [5] | inhibition at 1200 g/ha [6] | inhibition at 1200 g/ha [7] | inhibition at 1200 g/ha [8] | pest or weed control at 1200 g/ha [9]

CC(C)[C@]12C[C@@H](OCc3cccc(F)c3)[C@](C)(CC1=O)O2 [2-351, (1R,4S,5R)-5-((3-fluorobenzyl)oxy)-1-isopropyl-4-methyl-7-oxabicyclo[2.2.1]heptan-2-one]
≥ 80%: inhibition at 75 g/ha [1] | inhibition at 75 g/ha [2] | inhibition at 1200 g/ha [3] | inhibition at 1200 g/ha [10] | inhibition at 1200 g/ha [4] | inhibition at 1200 g/ha [6] | inhibition at 1200 g/ha [7] | inhibition at 1200 g/ha [8] | pest or weed control at 1200 g/ha [9]

CC(C)[C@]12C[C@@H](OCc3ccccc3Cl)[C@](C)(C[C@@H]1Br)O2 [1-20, (1S,2R,4R,5S)-5-bromo-2-[(2-chlorophenyl)methoxy]-1-methyl-4-isopropyl-7-oxabicyclo[2.2.1]heptane]
≥ 80%: inhibition at 75 g/ha [1] | inhibition at 75 g/ha [2] | inhibition at 1200 g/ha [3] | inhibition at 1200 g/ha [4] | inhibition at 75 g/ha [5] | inhibition at 1200 g/ha [6] | inhibition at 1200 g/ha [7] | inhibition at 1200 g/ha [8] | pest or weed control at 1200 g/ha [9]

CC(C)[C@]12C[C@@H](OCc3cccs3)[C@](C)(C[C@@H]1Br)O2 [1-721, (1S,2R,4R,5S)-5-bromo-1-methyl-4-isopropyl-2-(thiophen-2-ylmethoxy)-7-oxabicyclo[2.2.1]heptane]
≥ 80%: inhibition at 75 g/ha [1] | inhibition at 75 g/ha [2] | inhibition at 1200 g/ha [3] | inhibition at 1200 g/ha [4] | inhibition at 75 g/ha [5] | inhibition at 1200 g/ha [7] | inhibition at 1200 g/ha [8] | pest or weed control at 1200 g/ha [9]

CC(C)C1C[C@]2(C)O[C@@]1(C(C)C)C[C@H]2OCc1ccccc1F (stereo partly drawn) [1-133, (1S,2R,4R)-2-[(2-fluorobenzyl)oxy]-4,5-isopropyl-1-methyl-7-oxabicyclo[2.2.1]heptane]
≥ 80%: inhibition at 75 g/ha [2] | inhibition at 1200 g/ha [3] | inhibition at 1200 g/ha [4] | inhibition at 75 g/ha [5] | inhibition at 1200 g/ha [6] | inhibition at 1200 g/ha [7] | inhibition at 1200 g/ha [8] | weed inhibition rate [9]
